The record followed here is patent US8097629B2, “Dihydropyridinone derivatives” (Bayer Pharma Aktiengesellschaft, priority 2004, dated 2012).

Test [1] has as its target T1, human neutrophil elastase (HNE) (Homo sapiens, UniProt P08246).
T1 construct: purchased SERVA Electrophoresis GmbH, Heidelberg, Germany #20927.01
T1 sequence (P08246 30-267): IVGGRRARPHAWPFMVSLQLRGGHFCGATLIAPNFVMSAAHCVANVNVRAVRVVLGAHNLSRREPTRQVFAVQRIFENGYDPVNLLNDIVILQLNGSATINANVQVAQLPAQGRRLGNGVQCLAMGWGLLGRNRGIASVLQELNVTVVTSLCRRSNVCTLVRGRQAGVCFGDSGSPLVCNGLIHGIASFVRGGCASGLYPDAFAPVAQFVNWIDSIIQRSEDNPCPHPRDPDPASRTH
Put plainly: In vitro inhibition of HNE using a fluorogenic peptide substrate. Particulars: substrate MeOSuc-Ala-Ala-Pro-Val-AMC, 384 MTP format. It counts as biochemical. Here is the method: I. In vitro Enzyme Assays of Human Neutrophil Elastase (HNE)
assay buffer: 0.1 M HEPES-NaOH buffer pH 7.4, 0.5 M NaCl, 0.1% (w/v) bovine serum albumin;
suitable concentration (see below) of HNE (18 U/mg lyophil., #20927.01, SERVA Electrophoresis GmbH, Heidelberg, Germany) in assay buffer;
suitable concentration (see below) of substrate in assay buffer;
suitable concentration of test compounds diluted with assay buffer from a 10 mM stock solution in DMSO.
In vitro Inhibition of HNE Using a Fluorogenic Peptide Substrate (Continuous Read-out Signal, 384 MTP Assay Format):
In this protocol, the elastase substrate MeOSuc-Ala-Ala-Pro-Val-AMC (#324740, Calbiochem-Novabiochem Corporation, Merck KGaA, Darmstadt, Germany) is used. The test solution is prepared by mixing 10 μl of test compound dilution, 20 μl of HNE enzyme dilution (final concentration 8-0.4 μU/ml, routinely 2.1 μU/ml) and 20 μl of substrate dilution (final concentration 1 mM-1 μM, routinely 20 μM), respectively. The solution is incubated for 0-2 hrs at 37° C. (routinely one hour). The fluorescence of the liberated AMC due to the enzymatic reaction is measured at 37° C. (TECAN spectra fluor plus plate reader). The rate of increase of the fluorescence (ex. 395 nm, em. 460 nm) is proportional to elastase activity. IC50 values are determined by RFU-versus-[I] plots. Km and Km(app.) values are determined by Lineweaver-Burk plots and converted to Ki values by Dixon plots.

Test [2] has as its system human polymorphonuclear cells (PMNs). The test can be described thus: In vitro PMN elastolysis assay. Particulars: mean±s.e.m. It counts as cell-based. On the procedure:
In vitro PMN Elastolysis Assay:
This assay is used to determine the elastolytic potential of human polymorphonuclear cells (PMNs) and assess the proportion of degradation due to neutrophil elastase [cf. Z. W. She et al., Am. J Respir. Cell. Mol. Biol. 9, 386-392 (1993)].
Tritiated elastin, in suspension, is coated on to a 96 well plate at 10 μg per well. Test and reference [ZD-0892 (J. Med. Chem. 40, 1876-1885, 3173-3181 (1997), WO 95/21855) and α1 protease inhibitor (α1PI)] compounds are added to the wells at the appropriate concentrations. Human PMNs are separated from peripheral venous blood of healthy donors and resuspended in culture media. The neutrophils are added to the coated wells at concentrations ranging between 1×10^6 to 1×10^5 cells per well. Porcine pancreatic elastase (1.3 μM) is used as a positive control for the assay, and α1PI (1.2 μM) is used as the positive inhibitor of neutrophil elastase. The cellular, control is PMNs without compound at each appropriate cell density. The cells plus compounds are incubated in a humidified incubator at 37° C. for 4 hours. The plates are centrifuged to allow the harvest of cell supernatant only. The supernatant is transferred in 75 μl volumes to corresponding wells of a 96 well Lumaplate™ (solid scintillant containing plates). The plates are dried until no liquid is visible in the wells and read in a beta counter for 3 minutes per well. […]

In general, IC50 refers to the concentration needed to halve the response being measured.

Molecule `COc1ccc(CN(C)C(=O)C2C(=O)N(c3cccc(C(F)(F)F)c3)C(C)=C(C(C)=O)C2c2ccc(C#N)cc2)cc1` (centres unmarked) [Example 19] came in with an IC50 in test [1] of 40 nM. As for `CC(=O)C1=C(C)N(c2cccc(C(F)(F)F)c2)C(=O)C(C(=O)N(C)c2cccc(C)c2)C1c1ccc(C#N)cc1` (centres unmarked) [Example 27], the midpoint of inhibition in test [1], the IC50, lay at 30 nM. `CC(=O)C1=C(C)N(c2cccc(C(F)(F)F)c2)C(=O)C(C(=O)N2CCN(CCN3CCOCC3)CC2)C1c1ccc(C#N)cc1` (centres unmarked) [Example 45] gave an IC50 in test [1] of 70 nM. `COc1ccc(C(=O)N[C@H](C(=O)N2CCC[C@H]2C(=O)N[C@H](C(=O)C(F)(F)F)C(C)C)C(C)C)cc1` [ZD-0892] registered an IC50 in test [2] (n=2 different donors at 3.6×10^5 cells per well) of 45.5 ± 7.75 nM.

Take “α1PI: α1 protease inhibitor, used as the positive inhibitor of neutrophil elastase”: in test [2] (at 1.2 μM, n=3 different donors at 3.6×10^5 cells per well), the “inhibition of 3H-elastin elastolysis” value is recorded as 83.46±3.97%.

`CCOC(=O)N1CCN(C(=O)C2C(=O)N(c3cccc(C(F)(F)F)c3)C(C)=C(C(C)=O)C2c2ccc(C#N)cc2)CC1` (centres unmarked) [Example 54] showed an IC50 in test [1] of 60 nM. Regarding `CC(=O)C1=C(C)N(c2cccc(C(F)(F)F)c2)C(=O)C(C(=O)N2CCN3CCCC3C2)C1c1ccc(C#N)cc1` (centres unmarked) [Example 34], the 50% inhibitory concentration (IC50) in test [1] was determined as 60 nM. In test [1], `COCCOCCCNC(=O)C1C(=O)N(c2cccc(C(F)(F)F)c2)C(C)=C(C(C)=O)C1c1ccc(C#N)cc1` (centres unmarked) [Example 61] displayed an IC50 of 50 nM.
